From PubChem BioAssay AID2060338 (Molecular Pharmacology Branch, DTP, NCI, 2025)
“And” between values parts separate entries of the source, which are not always exact repeats. Equal values may be shown once.

System: 556581-035-R-J1-PDC spheroids with HUVEC/MSC, viability
Experiment: Anticancer human tumor 556581-035-R-J1-PDC patient-derived ovarian carcinoma cell line growth inhibition [IpAb]
Details: for viability, T/C: stronger effect = lower value
How it was run: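 Multi-cell spheroids of 60% tumour cells, 25% HUVEC and 15% MSC in ultra-low-attachment U-bottom wells, treated with agents combined with ipatasertib or abemaciclib. Half-log ranges top out near clinical Cmax, or 10 microM when Cmax is unknown.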

[1] = curve of first compound, second compound 0.1 µM
[2] = curve of first compound, second compound 0.316 µM
[3] = curve of first compound, second compound 1 µM
[4] = curve of first compound, second compound 3.16 µM
[5] = curve of first compound, second compound 10 µM
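Note: spheroids exposed to compounds for 7 days before readout.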

## C=CCn1c(=O)c2cnc(Nc3ccc(N4CCN(C)CC4)cc3)nc2n1-c1cccc(C(C)(C)O)n1 + CC(C)NCC(C(=O)N1CCN(c2ncnc3c2C(C)CC3O)CC1)c1ccc(Cl)cc1
[1]
  IC50: 217 nM
[2]
  IC50: 186 nM
[3]
  IC50: 145 nM
[4]
  IC50: 71 nM
[5]
  IC50: < 31.6 nM
Second compound 0.1 µM, first compound 0.0316 µM
  viability, T/C: 106%
Second compound 0.1 µM, first compound 0.1 µM
  viability, T/C: 82.7%
Second compound 0.1 µM, first compound 0.316 µM
  viability, T/C: 27.3%
Second compound 0.1 µM, first compound 1 µM
  viability, T/C: 31.7%
Second compound 0.1 µM, first compound 3.16 µM
  viability, T/C: 42.9%
Second compound 0.1 µM, first compound 10 µM
  viability, T/C: 34.8%
Second compound 0.316 µM, first compound 0.0316 µM
  viability, T/C: 94.4%
Second compound 0.316 µM, first compound 0.1 µM
  viability, T/C: 75.8%
Second compound 0.316 µM, first compound 0.316 µM
  viability, T/C: 22.9%
Second compound 0.316 µM, first compound 1 µM
  viability, T/C: 26.4%
Second compound 0.316 µM, first compound 3.16 µM
  viability, T/C: 35.1%
Second compound 0.316 µM, first compound 10 µM
  viability, T/C: 27.5%
Second compound 1 µM, first compound 0.0316 µM
  viability, T/C: 64.2%
Second compound 1 µM, first compound 0.1 µM
  viability, T/C: 62.7%
Second compound 1 µM, first compound 0.316 µM
  viability, T/C: 18.9%
Second compound 1 µM, first compound 1 µM
  viability, T/C: 22%
Second compound 1 µM, first compound 3.16 µM
  viability, T/C: 27.4%
Second compound 1 µM, first compound 10 µM
  viability, T/C: 26.4%
Second compound 3.16 µM, first compound 0.0316 µM
  viability, T/C: 60.8%
Second compound 3.16 µM, first compound 0.1 µM
  viability, T/C: 45.5%
Second compound 3.16 µM, first compound 0.316 µM
  viability, T/C: 17.2%
Second compound 3.16 µM, first compound 1 µM
  viability, T/C: 13.2%
Second compound 3.16 µM, first compound 3.16 µM
  viability, T/C: 23.2%
Second compound 3.16 µM, first compound 10 µM
  viability, T/C: 22.8%
Second compound 10 µM, first compound 0.0316 µM
  viability, T/C: 43.3%
Second compound 10 µM, first compound 0.1 µM
  viability, T/C: 35.9%
Second compound 10 µM, first compound 0.316 µM
  viability, T/C: 14.8%
Second compound 10 µM, first compound 1 µM
  viability, T/C: 11.6%
Second compound 10 µM, first compound 3.16 µM
  viability, T/C: 18.2%
Second compound 10 µM, first compound 10 µM
  viability, T/C: 19.7%

## CC(C)NCC(C(=O)N1CCN(c2ncnc3c2C(C)CC3O)CC1)c1ccc(Cl)cc1 (stereo unspecified)
Compound 3.16 µM
  viability, T/C: 49% [middle of 13 runs]
Compound 10 µM
  viability, T/C: 45.5% [middle of 12 runs]

## CC(C)(C)c1cnc(CSc2cnc(NC(=O)C3CCNCC3)s2)o1 + CC(C)NCC(C(=O)N1CCN(c2ncnc3c2C(C)CC3O)CC1)c1ccc(Cl)cc1
[1]
  IC50: 107 nM
[2]
  IC50: 137 nM
[3]
  IC50: 55.2 nM
[4]
  IC50: 42.9 nM
[5]
  IC50: < 9.49 nM
Second compound 0.1 µM, first compound 0.00949 µM
  viability, T/C: 86.1%
Second compound 0.1 µM, first compound 0.03 µM
  viability, T/C: 116%
Second compound 0.1 µM, first compound 0.0949 µM
  viability, T/C: 55.3%
Second compound 0.1 µM, first compound 0.3 µM
  viability, T/C: 3.48%
Second compound 0.1 µM, first compound 0.949 µM
  viability, T/C: 3.84%
Second compound 0.1 µM, first compound 3 µM
  viability, T/C: 2.08%
Second compound 0.316 µM, first compound 0.00949 µM
  viability, T/C: 81.1%
Second compound 0.316 µM, first compound 0.03 µM
  viability, T/C: 89.9%
Second compound 0.316 µM, first compound 0.0949 µM
  viability, T/C: 71.9%
Second compound 0.316 µM, first compound 0.3 µM
  viability, T/C: 3.02%
Second compound 0.316 µM, first compound 0.949 µM
  viability, T/C: 2.73%
Second compound 0.316 µM, first compound 3 µM
  viability, T/C: 3.48%
Second compound 1 µM, first compound 0.00949 µM
  viability, T/C: 64.6%
Second compound 1 µM, first compound 0.03 µM
  viability, T/C: 65.4%
Second compound 1 µM, first compound 0.0949 µM
  viability, T/C: 36.7%
Second compound 1 µM, first compound 0.3 µM
  viability, T/C: 2.25%
Second compound 1 µM, first compound 0.949 µM
  viability, T/C: 2.57%
Second compound 1 µM, first compound 3 µM
  viability, T/C: 3.16%
Second compound 3.16 µM, first compound 0.00949 µM
  viability, T/C: 56.4%
Second compound 3.16 µM, first compound 0.03 µM
  viability, T/C: 55.7%
Second compound 3.16 µM, first compound 0.0949 µM
  viability, T/C: 36.6%
Second compound 3.16 µM, first compound 0.3 µM
  viability, T/C: 2.16%
Second compound 3.16 µM, first compound 0.949 µM
  viability, T/C: 3.96%
Second compound 3.16 µM, first compound 3 µM
  viability, T/C: 2.31%
Second compound 10 µM, first compound 0.00949 µM
  viability, T/C: 46.1%
Second compound 10 µM, first compound 0.03 µM
  viability, T/C: 44.2%
Second compound 10 µM, first compound 0.0949 µM
  viability, T/C: 11.5%
Second compound 10 µM, first compound 0.3 µM
  viability, T/C: 2.21%
Second compound 10 µM, first compound 0.949 µM
  viability, T/C: 1.45%
Second compound 10 µM, first compound 3 µM
  viability, T/C: 1.36%

## Cn1nccc1Nc1nccc(-c2ccn(C(CO)c3ccc(Cl)c(F)c3)c(=O)c2)n1 (stereo unspecified)
Compound 0.0316 µM
  viability, T/C: 114% and 133%
Compound 0.1 µM
  viability, T/C: 117% and 135%
Compound 0.316 µM
  viability, T/C: 103% and 124%
Compound 1 µM
  viability, T/C: 86.2% and 104%
Compound 3.16 µM
  viability, T/C: 61.3% and 88.7%
Compound 10 µM
  viability, T/C: 17.8% and 38.4%
Curve of compound
  IC50: 4160 nM and 7690 nM

## CC(C)n1nc(-c2ccc3oc(N)nc3c2)c2c(N)ncnc21
Compound 0.000316 µM
  viability, T/C: 99.2% and 88.1%
Compound 0.001 µM
  viability, T/C: 62.2% and 89.2%
Compound 0.00316 µM
  viability, T/C: 70.7% and 66.5%
Compound 0.01 µM
  viability, T/C: 45.7% and 44.2%
Compound 0.0316 µM
  viability, T/C: 34.7% and 34%
Compound 0.1 µM
  viability, T/C: 25.1% and 23.4%
Curve of compound
  IC50: 7.84 nM and 7.75 nM
